The test system of assay [1] is calf thymus DNA. The experiment in a line: Equilibrium dialysis dark binding (association constant). The note with it: for Ka: 4° C., five days, dark, isopsoralen:DNA base pair 1:15. How it is done:
Equilibrium Dialysis was used to determine the association (“dark binding”) constants of AMIP, AMDMIP and MIP with calf thymus DNA. The tritium labelled isopsoralens were used for the experiment. The method was a modification of that of Isaacs et al. Biochemistry 16, 1058-1066 (1977).
Spectrapor 2 dialysis tubing (Spectrum) was pre-treated by boiling in saturated sodium bicarbonate then rinsed thoroughly with double distilled water. Calf thymus DNA (Sigma) was prepared at a concentration of 50 μg/ml in 1×TE. The samples were prepared by placing 1.0 ml of the DNA solution inside the bag and using enough isopsoralen to provide an isopsoralen:DNA base pair ratio of 1:15. The samples were prepared with the tritiated isopsoralen (“Drug”) placed either inside or outside of the dialysis bag (each sample was placed in a scintillation vial containing a small magnetic stir bar). The samples were stirred at 4° C. for five days in the dark. After this period the bags were removed, opened, and the radioactivity inside and outside the bag determined by scintillation counting. The concentration of the DNA was determined by measuring optical density at 260 nm. The […] constant (Ka) was calculated from this information (Table 9). Preparing the samples in duplicate with the isopsoralen both inside and outside the dialysis bag provided a check that the system had come to equilibrium at the end of the dialysis period (the amount of isopsoralen inside and outside the bag at equilibrium should be, and was, the same in both cases).
The association constant, Ka is defined here as [formula]
for the reaction P+DNA P:DNA where P=free drug in solution, DNA=DNA binding site for the drug, and P:DNA=drug associated with the DNA. The following summarizes the Ka values determined for the compounds: […]

The test system of assay [2] is Taq I DNA polymerase. The experiment in a line: Primer extension on site-specific monoadducted 71-mer, Taq polymerase. The class given is biochemical, Thermus aquaticus. The settings on record: for Taq polymerase extension on 71-mer monoadduct template: 55° C., single extension. As to the method:
In this experiment, monoadducted 71-mers (as well as unmodified 71-mers) were used in template-dependent enzymatic extension. AMIP, AMDMIP, and MIP 71-mer monoadducts were made as in Example 42. Extension was carried out as in Example 43 except that in this experiment, Taq I DNA polymerase, a thermostable DNA polymerase isolated from Thermus aquaticus (Stratagene, Inc., La Jolla, Calif.) was assessed for its ability to read past isopsoralens.
The reaction mixture was in 80 μl total volume and comprised 1×Taq buffer, 200 μM each of dNTP's, 0.05 units of Taq per μl of reaction volume; 1×10^−9 M in 71-mer MA; 1×10^−8 M in ^32P-labelled SK-39. Each reaction was set up with everything except Taq polymerase. The samples were initially heated to 95° C. for 5 mins, then incubated at 55° C. for 3 mins. The extension reaction was initiated by addition of Tas polymerase. At the indicated time points (0.5, 1.0, 5.0 mins), 20 μl of the reaction mix was removed to a tube containing 1 μl of 0.5 M EDTA to stop the reaction. All products were analyzed on a 20% polyacrylamide, 7 M urea gel followed by autoradiography.
This experiment investigated whether blocking of Tag polymerase by monoadducts is complete or whether monoadducts can be bypassed by the enzyme. In order to view the process of bypass syrthesis, it is necessary to cycle the extension reaction of the primer with the 71-mer templates. Cycling in this case consists of mixing the primer with the 71-mer template, adding Taq polymerase and appropriate reagents, extending, heating to induce strand separation, reannealing of the primer to the 71-mer template, extending again, and subsequent stand separation. This process can be repeated as necessary. During this process, only the complement of the 71-mer template is being synthesized. It is accumulating in a linear fashion with the number of thermal cycles (in contrast to PCR where both strands are being synthesized and accumulate geometrically).
The templates and reaction conditions were as in Example 44 above except that three samples were used for each monoadduct and each sample was tested under different conditions:
Samples (1): one sample for each monoadduct was used to carry out extension at 55° C. as in Example 43;
Samples (2): one sample for each monoadduct was used to carry out extension by the following series of steps: denaturing at 95° C.; incubating for 30 seconds at 55° C.; adding Taq polymerase for 3 minutes at 55° C.; cooling the reaction for 1 minute at 7° C.; stopping the reaction with EDTA for one minute at 95° C.
Samples (3): one sample for each monoadduct was used to carry out extension by repeating the following series of steps nine times: denaturing at 95° C.; incubating for 30 seconds at 55° C.; adding Taq polymerase for 3 minutes at 55° C.; cooling the reaction for 1 minute at 7° C. At the end, the reaction is stopped with EDTA for one minute at 95° C.
To investigate this question further, a new 5-MIP monoadducted 71-mer was prepared by repurification of the HPLC purified 5-MIP ronoadducted 15-mer by PAGE. In this way, more of the non-monoadducted 15-mer was removed prior to ligation. The purified 71-mer was then used as template in an extension experiment as described in Example 45. After 10 cycles, there was still evidence of extension product (FIG. 34).
Monoadducted 71-mer was constructed as described, but for HMT. Extension was carried out and analyzed as before on PAGE. […] Full length 71-mer is not made and a shorter strand corresponding to the position of the HMT adduct was made.

Setting [3] is: tritiated drug placed inside dialysis bag.
Setting [4] is: tritiated drug placed outside dialysis bag.
[5] abbreviates: PAGE-repurified monoadducted 71-mer, after 10 cycles.

Here are results for three compounds from patent publication US6680025B2, “Device and method for photoactivation” (Cerus Corporation, priority 1989, dated 2004).

On to `Cc1oc2ccc3c(C)cc(=O)oc3c2c1CN` [AMDMIP, 4′-Aminomethyl-4,5′-dimethylisopsoralen], for which the Ka in assay [1] (setting [3]) is 7.66 × 10^4; in assay [1] (setting [4]) it was 1.07 × 10^5. For the same compound, the “Taq polymerase extension on 71-mer monoadduct template” value (“Taq polymerase extension” for short) in assay [2] is reported as “stops at positions that are shorter than the full length 71-mer product”.

As for `NCc1cc2occc2c2oc(=O)ccc12` [AMIP, 5-Aminomethylisopsoralen], the “Ka (DNA association constant) relative to AMDMIP” value in assay [1] was found to be 28%. The figures for the Ka in assay [1] (setting [3]) and in assay [1] (setting [4]) were 2.96 × 10^4 and 2.21 × 10^4, respectively. For the same compound, in assay [2], the “Taq polymerase extension” value is listed as “stops at positions that are shorter than the full length 71-mer product”.

Consider `Cc1cc2occc2c2oc(=O)ccc12` [MIP, 5-Methylisopsoralen], for which the Ka in assay [1] (setting [3]) is reported as 9.08 × 10^3. In addition, the Ka in assay [1] (setting [4]) is on record as 2.07 × 10^3. Besides, the “Taq polymerase extension” value in assay [2] is listed as “stops at positions that are shorter than the full length 71-mer product”. Also, in assay [2] (setting [5]), the “full length extension product as share of total extension products” value is recorded as 2.3% and the “truncated extension products as share of total” value is reported as 97.7%.
